Tests used:
human H1 receptor = target: T1, human H1 receptor (Homo sapiens, UniProt P35367); experiment: Histamine H1 receptor binding, competition displacement of [3H]-pyrilamine; settings: 1 nM [3H]-pyrilamine; membranes from recombinant CHO-K1 cells expressing the human H1 receptor; 1 hour at room temperature; read-out: H1 pKi/ [1328_S] (converted)
T1 construct: purchased Furoscreen S A, Brussels, Belgium (so in the source); host or cells: CHO-K1
Procedure: Histamine H1 receptor binding activity of compounds of the invention was assessed by competition displacement of 1 nM [3H]-pyrilamine (Amersham, Bucks, Product code TRK 608, specific activity 30Ci/mmol) to 2 μg membranes prepared from recombinant CHO-K1 cells expressing the human H1 receptor (Furoscreen S A, Brussels, Belgium, product code ES-390-M) in assay buffer (50 mM Tris pH 7.4 containing 2 mM MgCl2, 250 mM sucrose and 100 mM NaCl) for 1 hour at room temperature.

CCR3 = target: T2, CCR3 (Homo sapiens, UniProt P51677); experiment: Human eosinophil chemotaxis (eotaxin mediated); assay type: cell-based; settings: compound at 1 μM
T2 construct: Human eosinophils were isolated from EDTA anticoagulated peripheral blood; endogenous in cells; host or cells: human peripheral blood eosinophils
T2 sequence (P51677 1-355): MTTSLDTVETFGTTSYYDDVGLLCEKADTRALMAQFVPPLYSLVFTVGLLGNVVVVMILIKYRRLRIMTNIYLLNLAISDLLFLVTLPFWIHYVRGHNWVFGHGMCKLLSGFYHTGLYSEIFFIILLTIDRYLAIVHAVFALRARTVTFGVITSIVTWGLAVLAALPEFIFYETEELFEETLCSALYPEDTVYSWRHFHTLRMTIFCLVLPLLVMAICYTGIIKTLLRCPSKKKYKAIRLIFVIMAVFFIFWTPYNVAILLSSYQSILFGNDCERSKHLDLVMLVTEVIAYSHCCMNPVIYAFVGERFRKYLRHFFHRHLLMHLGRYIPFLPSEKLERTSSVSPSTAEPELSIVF
Procedure: Human Eosinophil Chemotaxis
Human eosinophils were isolated from EDTA anticoagulated peripheral blood as previously described (Hansel et al., J. Immunol. Methods, 1991, 145, 105-110). The cells were resuspended at 10×10^6 ml^−1 in RPMI containing 200 μg/ml penicillin, 200 μg/ml streptomycin sulfate and supplemented with 10% HIFCS, at room temperature.
Eosinophils (700 μl) were pre-incubated for 15 mins at 37° C. with 7 μl of either vehicle or compound (100× required final concentration in 10% DMSO). The chemotaxis plate (ChemoTx, 3 μm pore, Neuroprobe) was loaded by adding 28 μl of a concentration of eotaxin 0.1 to 100 nM (a selective CCR3 agonist over this concentration range) containing a concentration of a compound according to the Examples or solvent to the lower wells of the chemotaxis plate. The filter was then placed over the wells and 25 μl of eosinophil suspension were added to the top of the filter. The plate was incubated for 1 hr at 37° C. in a humidified incubator with a 95% air/5% CO2 atmosphere to allow chemotaxis.
The medium, containing cells that had not migrated, was carefully aspirated from above the filter and discarded. The filter was washed once with phosphate buffered saline (PBS) containing 5 mM EDTA to remove any adherent cells. […] The number of eosinophils migrating was quantified according to the method of Strath et al., J. Immunol. […]

T1 sequence (P35367 whole entry): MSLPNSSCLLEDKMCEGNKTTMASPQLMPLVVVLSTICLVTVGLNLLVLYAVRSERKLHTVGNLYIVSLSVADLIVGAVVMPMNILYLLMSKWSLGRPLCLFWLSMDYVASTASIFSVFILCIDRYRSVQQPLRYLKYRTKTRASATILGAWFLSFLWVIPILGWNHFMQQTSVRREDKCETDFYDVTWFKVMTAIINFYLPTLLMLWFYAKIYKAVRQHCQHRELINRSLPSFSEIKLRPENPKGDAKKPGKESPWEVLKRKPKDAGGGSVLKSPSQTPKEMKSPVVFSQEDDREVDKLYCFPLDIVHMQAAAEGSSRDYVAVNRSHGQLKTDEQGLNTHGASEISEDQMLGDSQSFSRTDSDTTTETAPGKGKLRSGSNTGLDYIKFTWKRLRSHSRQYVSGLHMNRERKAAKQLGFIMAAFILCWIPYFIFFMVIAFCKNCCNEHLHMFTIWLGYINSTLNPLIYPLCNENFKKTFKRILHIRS

Compound	Ki (human H1 receptor) [nM]	inhibition at 1 µM (CCR3) [%]
O=C(c1cn2cc(F)ccc2n1)N1CCOC(CN2CCC(Oc3ccc(Cl)c(Cl)c3)CC2)C1 (stereo not drawn) [Example 3, 2-[(2-{[4-(3,4-dichlorophenoxy)piperidin-1-yl]methyl}morpholin-4-yl)carbonyl]-6-fluoroimidazo[1,2-a]pyridine]	12.6	
CS(=O)(=O)c1cccc(C(=O)N2CCOC(CN3CCC(Oc4ccc(Cl)c(Cl)c4)CC3)C2)c1 (stereo not drawn) [Example 4, 2-{[4-(3,4-dichlorophenoxy)piperidin-1-yl]methyl}-4-[3-(methylsulfonyl)benzoyl]morpholine]	100	
CS(=O)(=O)c1cccc(C(=O)N2CCO[C@@H](CN3CCC(Oc4ccc(Cl)c(Cl)c4)CC3)C2)c1 [Example 5, (2S)-2-{[4-(3,4-Dichlorophenoxy)piperidin-1-yl]methyl}-4-[3-(methylsulfonyl)benzoyl]morpholine]	20	> 75
O=C(c1c[nH]c(=O)c2ccccc12)N1CCO[C@H](CN2CCC(Oc3ccc(Cl)c(Cl)c3)CC2)C1 [Example 73]	7.94	> 75

Reference: patent publication US7238691B2, “Piperidine derivatives and their use as modulators of chemokine (especially CCR3) activity” (AstraZeneca AB, priority 2001, dated 2007)
